# Data published in patent US10738028B2, “Spiro three-membered ring, spiro five-membered ring peptide deformylase inhibitor and use thereof in antibacteria and anti-tumor” (priority 2016, dated 2020).
# Read-outs that look alike come from different tables or passages of the source.
# Key:
# Format in all cases: cell-based
# [1] = tested on: methicillin-resistant Staphylococcus aureus (MRSA); test: MIC, two-fold agar dilution (CLSI), clinical isolates; settings: for Anti-bacterial activity (MIC), strain MRSA 15-1: clinical isolate MRSA 15-1; for Anti-bacterial activity (MIC), strain MRSA 15-2: clinical isolate MRSA 15-2; for Anti-bacterial activity (MIC), strain MRSA 15-3: clinical isolate MRSA 15-3; for Anti-bacterial activity (MIC), strain MRSA 15-4: clinical isolate MRSA 15-4
# How it was run: (§1)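 CLSI two-fold agar dilution; MIC of test samples read per tested strain.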
# [2] = tested on: Enterococcus faecium (EFM); test: as above
# How it was run: as §1
# [3] = tested on: Moraxella catarrhalis (BCA); test: as above
# How it was run: as §1
# [4] = tested on: Enterococcus faecalis (EFA); test: as above
# How it was run: as §1
# [5] = tested on: Escherichia coli (including ESBLs, non-ESBLs); test: as above; settings: for Anti-bacterial activity (MIC), strain ECO+ 15-1: clinical isolate ECO+ 15-1; for Anti-bacterial activity (MIC), strain ECO+ 15-2: clinical isolate ECO+ 15-2; for Anti-bacterial activity (MIC), strain ECO+ 15-3: clinical isolate ECO+ 15-3; for Anti-bacterial activity (MIC), strain ECO+ 15-4: clinical isolate ECO+ 15-4; for Anti-bacterial activity (MIC), strain ECO− 15-1: clinical isolate ECO− 15-1; for Anti-bacterial activity (MIC), strain ECO− 15-2: clinical isolate ECO− 15-2; for Anti-bacterial activity (MIC), strain ECO− 15-3: clinical isolate ECO− 15-3; for Anti-bacterial activity (MIC), strain ECO− 15-4: clinical isolate ECO− 15-4
# How it was run: as §1
# [6] = tested on: methicillin-resistant Staphylococcus epidermidis (MRSE); test: as above; settings: for Anti-bacterial activity (MIC), strain MRSE 15-1: clinical isolate MRSE 15-1; for Anti-bacterial activity (MIC), strain MRSE 15-2: clinical isolate MRSE 15-2; for Anti-bacterial activity (MIC), strain MRSE 15-3: clinical isolate MRSE 15-3; for Anti-bacterial activity (MIC), strain MRSE 15-7: clinical isolate MRSE 15-7
# How it was run: as §1
# [7] = tested on: Streptococcus pneoumoniae (SPN); test: as above
# How it was run: as §1
# [8] = tested on: methicillin-sensitive Staphylococcus epidermidis (MSSE); test: as above; settings: for Anti-bacterial activity (MIC), strain MSSE 15-3: clinical isolate MSSE 15-3; for Anti-bacterial activity (MIC), strain MSSE 15-4: clinical isolate MSSE 15-4; for Anti-bacterial activity (MIC), strain MSSE 15-5: clinical isolate MSSE 15-5; for Anti-bacterial activity (MIC), strain MSSE 15-6: clinical isolate MSSE 15-6
# How it was run: as §1
# [9] = tested on: methicillin-sensitive Staphylococcus aureus (MSSA); test: as above; settings: for Anti-bacterial activity (MIC), strain MSSA 15-3: clinical isolate MSSA 15-3; for Anti-bacterial activity (MIC), strain MSSA 15-4: clinical isolate MSSA 15-4; for Anti-bacterial activity (MIC), strain MSSA 15-5: clinical isolate MSSA 15-5; for Anti-bacterial activity (MIC), strain MSSA 15-6: clinical isolate MSSA 15-6
# How it was run: as §1
# [10] = tested on: A549 lung cancer cell line; test: CCK-8 proliferation inhibition
# How it was run: (§2)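 Plating at 2000 cells/well, then incubation overnight at 37° C. Next, a range of compound concentrations for 72 hours (control 1‰ DMSO). Finally, medium decanted and CCK-8 diluted 1:10 added.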
# [11] = tested on: BEL-7402 liver cancer cell line; test: CCK-8 proliferation inhibition; settings: for inhibition at 30 µM: Bel-7402, 72 h
# How it was run: as §2
# [12] = tested on: MGC-803 gastric cancer cell line; test: CCK-8 proliferation inhibition; settings: for inhibition at 30 µM: MGC-803, 72 h
# How it was run: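 Proliferation was measured with 1:10 diluted CCK-8 after a 72-hour incubation with the inhibitors at various final concentrations, using 1‰ DMSO as the control. Cells were plated at 2000 per well. Culture media contained 10% newborn bovine serum: 1640 for Jurkat and MGC-803, F12 for PC3, DMEM high glucose for MCF-7.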
# [13] = tested on: HCT-116 colorectal cancer cell line; test: CCK-8 proliferation inhibition; settings: 72 hours, CCK-8; for inhibition at 30 µM: HCT-116, 72 h
# How it was run: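 Cells were plated overnight at 2000 cells/well, then compound in culture medium was added at a range of final concentrations. After 72 hours in a CO2 incubator, medium was replaced with 1:10 CCK-8 solution for the read-out.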
# [14] = Homo sapiens, concentration of 30 μM
# [15] = concentration of 30 μM, 72 hours, 30 µM
structure (smiles),measurement,setting,value
Cc1cc(NC(=O)[C@@H]2CC3(CC3)CN2C(=O)[C@@H](CC(=O)NO)CC2CCCC2)no1 [Example 71],"Anti-bacterial activity (MIC), strain MRSA 15-1",[1],0.125 µg/mL
same,"Anti-bacterial activity (MIC), strain MRSA 15-2",[1],1 µg/mL
same,"Anti-bacterial activity (MIC), strain MRSA 15-3",[1],0.125 µg/mL
same,"Anti-bacterial activity (MIC), strain MRSA 15-4",[1],0.5 µg/mL
same,Anti-bacterial activity (MIC),[2]; strain EFM 15-1,0.5 µg/mL
same,Anti-bacterial activity (MIC),[2]; strain EFM 15-2,2 µg/mL
same,Anti-bacterial activity (MIC),[2]; strain EFM 15-3,0.25 µg/mL
same,Anti-bacterial activity (MIC),[2]; strain EFM 15-4,2 µg/mL
same,Anti-bacterial activity (MIC),[2]; strain EFM 15-5,0.125 µg/mL
same,Anti-bacterial activity (MIC),[2]; strain EFM 15-6,0.5 µg/mL
same,Anti-bacterial activity (MIC),[3]; strain BCA 14-1,0.5 µg/mL
same,Anti-bacterial activity (MIC),[3]; strain BCA 14-4,0.5 µg/mL
same,Anti-bacterial activity (MIC),[3]; strain BCA 14-5,0.25 µg/mL
same,Anti-bacterial activity (MIC),[3]; strain BCA 14-6,0.5 µg/mL
same,Anti-bacterial activity (MIC),[3]; strain BCA 14-7,0.5 µg/mL
same,Anti-bacterial activity (MIC),[3]; strain BCA 14-8,0.25 µg/mL
same,Anti-bacterial activity (MIC),[3]; strain BCA 14-10,0.125 µg/mL
same,Anti-bacterial activity (MIC),[4]; strain EFA 15-1,2 µg/mL
same,Anti-bacterial activity (MIC),[4]; strain EFA 15-2,2 µg/mL
same,Anti-bacterial activity (MIC),[4]; strain EFA 15-3,0.5 µg/mL
same,Anti-bacterial activity (MIC),[4]; strain EFA 15-4,2 µg/mL
same,Anti-bacterial activity (MIC),[4]; strain EFA 15-5,2 µg/mL
same,Anti-bacterial activity (MIC),[4]; strain EFA 15-6,2 µg/mL
same,Anti-bacterial activity (MIC),[4]; strain EFA 15-9,1 µg/mL
same,"Anti-bacterial activity (MIC), strain ECO+ 15-1",[5],16 µg/mL
same,"Anti-bacterial activity (MIC), strain ECO+ 15-2",[5],16 µg/mL
same,"Anti-bacterial activity (MIC), strain ECO+ 15-3",[5],32 µg/mL
same,"Anti-bacterial activity (MIC), strain ECO+ 15-4",[5],32 µg/mL
same,"Anti-bacterial activity (MIC), strain ECO− 15-1",[5],16 µg/mL
same,"Anti-bacterial activity (MIC), strain ECO− 15-2",[5],16 µg/mL
same,"Anti-bacterial activity (MIC), strain ECO− 15-3",[5],16 µg/mL
same,"Anti-bacterial activity (MIC), strain ECO− 15-4",[5],32 µg/mL
same,"Anti-bacterial activity (MIC), strain MRSE 15-1",[6],0.06 µg/mL
same,"Anti-bacterial activity (MIC), strain MRSE 15-2",[6],0.125 µg/mL
same,"Anti-bacterial activity (MIC), strain MRSE 15-3",[6],0.125 µg/mL
same,"Anti-bacterial activity (MIC), strain MRSE 15-7",[6],0.25 µg/mL
same,Anti-bacterial activity (MIC),[7]; strain SPN 16-2,2 µg/mL
same,Anti-bacterial activity (MIC),[7]; strain SPN 16-4,0.25 µg/mL
same,"Anti-bacterial activity (MIC), strain MSSE 15-3",[8],0.16 µg/mL
same,"Anti-bacterial activity (MIC), strain MSSE 15-4",[8],0.06 µg/mL
same,"Anti-bacterial activity (MIC), strain MSSE 15-5",[8],0.06 µg/mL
same,"Anti-bacterial activity (MIC), strain MSSE 15-6",[8],0.06 µg/mL
same,"Anti-bacterial activity (MIC), strain MSSA 15-3",[9],0.25 µg/mL
same,"Anti-bacterial activity (MIC), strain MSSA 15-4",[9],0.125 µg/mL
same,"Anti-bacterial activity (MIC), strain MSSA 15-5",[9],0.06 µg/mL
same,"Anti-bacterial activity (MIC), strain MSSA 15-6",[9],0.25 µg/mL
same,inhibition at 30 µM,"[10]; Homo sapiens, A549, 72 h, concentration of 30 μM",5%
same,inhibition at 30 µM,[11]; [14],49%
same,inhibition at 30 µM,[12]; [14],34%
same,inhibition at 30 µM,"[13]; Homo sapiens, concentration of 30 μM, Table 5, read-out: Inhibition of proliferation, Colorectal cancer HCT116",≥ 30%
same,inhibition at 30 µM,"[13]; Homo sapiens, concentration of 30 μM, read-out: HCT116 inhibition rate/%",30%
"O=C(C[C@@H](CC1CCCC1)C(=O)N1CC2(CC2)C[C@@H]1c1nc2ccccc2[nH]1)NO [Example 76, (R)-4-((R)-6-(1H-benzimidazol-2-yl)-5-azaspiro[2.4]heptane-5-yl)-3-(cyclopentylmethyl)-N-hydroxy-4-oxobutanamide]","Anti-bacterial activity (MIC), strain MRSA 15-1",[1],> 32 µg/mL
same,"Anti-bacterial activity (MIC), strain MRSA 15-2",[1],> 32 µg/mL
same,"Anti-bacterial activity (MIC), strain MRSA 15-3",[1],> 32 µg/mL
same,"Anti-bacterial activity (MIC), strain MRSA 15-4",[1],> 32 µg/mL
same,Anti-bacterial activity (MIC),[2]; strain EFM 15-1,> 32 µg/mL
same,Anti-bacterial activity (MIC),[2]; strain EFM 15-2,> 32 µg/mL
same,Anti-bacterial activity (MIC),[2]; strain EFM 15-3,> 32 µg/mL
same,Anti-bacterial activity (MIC),[2]; strain EFM 15-4,16 µg/mL
same,Anti-bacterial activity (MIC),[2]; strain EFM 15-5,16 µg/mL
same,Anti-bacterial activity (MIC),[2]; strain EFM 15-6,32 µg/mL
same,Anti-bacterial activity (MIC),[3]; strain BCA 14-1,2 µg/mL
same,Anti-bacterial activity (MIC),[3]; strain BCA 14-4,> 32 µg/mL
same,Anti-bacterial activity (MIC),[3]; strain BCA 14-5,> 32 µg/mL
same,Anti-bacterial activity (MIC),[3]; strain BCA 14-6,> 32 µg/mL
same,Anti-bacterial activity (MIC),[3]; strain BCA 14-7,> 32 µg/mL
same,Anti-bacterial activity (MIC),[3]; strain BCA 14-8,> 32 µg/mL
same,Anti-bacterial activity (MIC),[3]; strain BCA 14-10,> 32 µg/mL
same,Anti-bacterial activity (MIC),[4]; strain EFA 15-1,> 32 µg/mL
same,Anti-bacterial activity (MIC),[4]; strain EFA 15-2,> 32 µg/mL
same,Anti-bacterial activity (MIC),[4]; strain EFA 15-3,> 32 µg/mL
same,Anti-bacterial activity (MIC),[4]; strain EFA 15-4,> 32 µg/mL
same,Anti-bacterial activity (MIC),[4]; strain EFA 15-5,> 32 µg/mL
same,Anti-bacterial activity (MIC),[4]; strain EFA 15-6,> 32 µg/mL
same,Anti-bacterial activity (MIC),[4]; strain EFA 15-9,> 32 µg/mL
same,"Anti-bacterial activity (MIC), strain ECO+ 15-1",[5],> 32 µg/mL
same,"Anti-bacterial activity (MIC), strain ECO+ 15-2",[5],> 32 µg/mL
same,"Anti-bacterial activity (MIC), strain ECO+ 15-3",[5],> 32 µg/mL
same,"Anti-bacterial activity (MIC), strain ECO+ 15-4",[5],> 32 µg/mL
same,"Anti-bacterial activity (MIC), strain ECO− 15-1",[5],> 32 µg/mL
same,"Anti-bacterial activity (MIC), strain ECO− 15-2",[5],> 32 µg/mL
same,"Anti-bacterial activity (MIC), strain ECO− 15-3",[5],> 32 µg/mL
same,"Anti-bacterial activity (MIC), strain ECO− 15-4",[5],> 32 µg/mL
same,"Anti-bacterial activity (MIC), strain MRSE 15-1",[6],> 32 µg/mL
same,"Anti-bacterial activity (MIC), strain MRSE 15-2",[6],> 32 µg/mL
same,"Anti-bacterial activity (MIC), strain MRSE 15-3",[6],> 32 µg/mL
same,"Anti-bacterial activity (MIC), strain MRSE 15-7",[6],> 32 µg/mL
same,Anti-bacterial activity (MIC),[7]; strain SPN 16-2,8 µg/mL
same,Anti-bacterial activity (MIC),[7]; strain SPN 16-4,4 µg/mL
same,"Anti-bacterial activity (MIC), strain MSSE 15-3",[8],> 32 µg/mL
same,"Anti-bacterial activity (MIC), strain MSSE 15-4",[8],> 32 µg/mL
same,"Anti-bacterial activity (MIC), strain MSSE 15-5",[8],> 32 µg/mL
same,"Anti-bacterial activity (MIC), strain MSSE 15-6",[8],> 32 µg/mL
same,"Anti-bacterial activity (MIC), strain MSSA 15-3",[9],> 32 µg/mL
same,"Anti-bacterial activity (MIC), strain MSSA 15-4",[9],> 32 µg/mL
same,"Anti-bacterial activity (MIC), strain MSSA 15-5",[9],> 32 µg/mL
same,"Anti-bacterial activity (MIC), strain MSSA 15-6",[9],> 32 µg/mL
same,IC50,"[10]; Homo sapiens, A549, 72 hours",9.29 µM
same,"Inhibition of proliferation, Lung cancer A549",[10]; [15],94%
same,inhibition at 30 µM,[11]; [14],> 50%
same,IC50,"[11]; Homo sapiens, Bel-7402, 72 hours",8.58 µM
same,"Inhibition of proliferation, Liver cancer BEL-7402",[11]; [15],67%
same,inhibition at 30 µM,[12]; [14],> 50%
same,IC50,"[12]; Homo sapiens, MGC-803, 72 hours",16.6 µM
same,"Inhibition of proliferation, Gastric cancer MGC-803",[12]; [15],64%
same,IC50,"[13]; Homo sapiens, HCT-116",10.8 µM
same,HCT116 inhibition rate/%,"[13]; concentration of 30 μM, 30 µM",87%
